Assay results: ChEMBL document CHEMBL1131085, “Structure-activity relationships for a series of bis(phenylalkyl)amines: potent subtype-selective inhibitors of N-methyl-D-aspartate receptors” (J Med Chem, 1998)

Legend:
Assay type in all cases: cell-based, Oocyte
[1] = molecular target: Glutamate NMDA receptor; Grin1/Grin2c (Rattus norvegicus, UniProt P35439+Q00961); test: Functional antagonism by electrical assays in Xenopus oocytes expressing the 1A/2C NMDA receptor
[2] = molecular target: Glutamate NMDA receptor; Grin1/Grin2a (Rattus norvegicus, UniProt P35439+Q00959); test: Functional antagonism by electrical assays in Xenopus oocytes expressing 1A/2A NMDA receptor subtype
Glutamate NMDA receptor; Grin1/Grin2a, sequence (Q00959 whole entry, other chains not shown): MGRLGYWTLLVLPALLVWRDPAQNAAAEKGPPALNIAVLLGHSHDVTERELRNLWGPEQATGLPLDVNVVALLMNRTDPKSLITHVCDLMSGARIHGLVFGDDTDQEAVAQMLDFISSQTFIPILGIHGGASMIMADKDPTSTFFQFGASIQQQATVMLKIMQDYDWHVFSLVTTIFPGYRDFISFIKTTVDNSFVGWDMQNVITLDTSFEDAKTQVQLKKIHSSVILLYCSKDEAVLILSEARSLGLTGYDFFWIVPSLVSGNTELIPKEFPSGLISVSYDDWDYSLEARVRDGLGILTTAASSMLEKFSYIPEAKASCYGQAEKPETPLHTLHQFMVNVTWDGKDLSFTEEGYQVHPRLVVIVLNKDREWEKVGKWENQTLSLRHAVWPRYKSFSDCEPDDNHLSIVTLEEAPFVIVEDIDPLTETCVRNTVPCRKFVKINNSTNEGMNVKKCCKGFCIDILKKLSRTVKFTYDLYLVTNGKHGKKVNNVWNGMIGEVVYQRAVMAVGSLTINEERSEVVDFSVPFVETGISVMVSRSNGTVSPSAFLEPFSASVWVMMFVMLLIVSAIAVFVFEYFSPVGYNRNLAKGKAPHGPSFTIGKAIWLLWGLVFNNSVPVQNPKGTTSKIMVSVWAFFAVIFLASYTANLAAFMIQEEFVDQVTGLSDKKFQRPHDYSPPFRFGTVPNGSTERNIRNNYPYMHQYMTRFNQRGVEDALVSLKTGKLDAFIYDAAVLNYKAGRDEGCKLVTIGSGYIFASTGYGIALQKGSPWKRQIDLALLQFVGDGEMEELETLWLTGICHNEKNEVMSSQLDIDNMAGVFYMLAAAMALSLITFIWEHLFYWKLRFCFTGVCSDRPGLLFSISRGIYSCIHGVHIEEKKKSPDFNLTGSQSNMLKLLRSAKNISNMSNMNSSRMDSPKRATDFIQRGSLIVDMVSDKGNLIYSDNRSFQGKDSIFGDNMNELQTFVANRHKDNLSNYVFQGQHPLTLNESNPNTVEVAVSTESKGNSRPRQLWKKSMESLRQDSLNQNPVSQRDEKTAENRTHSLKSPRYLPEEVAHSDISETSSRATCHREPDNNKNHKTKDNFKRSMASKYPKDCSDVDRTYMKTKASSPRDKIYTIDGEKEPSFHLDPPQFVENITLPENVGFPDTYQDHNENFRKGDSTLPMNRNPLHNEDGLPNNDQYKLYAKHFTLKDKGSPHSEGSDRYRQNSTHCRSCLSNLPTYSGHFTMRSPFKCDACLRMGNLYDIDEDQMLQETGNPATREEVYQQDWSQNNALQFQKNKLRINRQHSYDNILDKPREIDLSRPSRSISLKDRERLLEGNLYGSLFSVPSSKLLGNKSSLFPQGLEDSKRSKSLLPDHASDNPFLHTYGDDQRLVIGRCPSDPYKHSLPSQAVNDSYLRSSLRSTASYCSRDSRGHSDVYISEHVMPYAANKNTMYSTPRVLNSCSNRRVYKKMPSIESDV

[3] = molecular target: Glutamate NMDA receptor; Grin1/Grin2b (Rattus norvegicus, UniProt P35439+Q00960); test: Functional antagonism by electrical assays in Xenopus oocytes expressing the 1A/2B NMDA receptor
Glutamate NMDA receptor; Grin1/Grin2b, sequence (Q00960 whole entry, other chains not shown): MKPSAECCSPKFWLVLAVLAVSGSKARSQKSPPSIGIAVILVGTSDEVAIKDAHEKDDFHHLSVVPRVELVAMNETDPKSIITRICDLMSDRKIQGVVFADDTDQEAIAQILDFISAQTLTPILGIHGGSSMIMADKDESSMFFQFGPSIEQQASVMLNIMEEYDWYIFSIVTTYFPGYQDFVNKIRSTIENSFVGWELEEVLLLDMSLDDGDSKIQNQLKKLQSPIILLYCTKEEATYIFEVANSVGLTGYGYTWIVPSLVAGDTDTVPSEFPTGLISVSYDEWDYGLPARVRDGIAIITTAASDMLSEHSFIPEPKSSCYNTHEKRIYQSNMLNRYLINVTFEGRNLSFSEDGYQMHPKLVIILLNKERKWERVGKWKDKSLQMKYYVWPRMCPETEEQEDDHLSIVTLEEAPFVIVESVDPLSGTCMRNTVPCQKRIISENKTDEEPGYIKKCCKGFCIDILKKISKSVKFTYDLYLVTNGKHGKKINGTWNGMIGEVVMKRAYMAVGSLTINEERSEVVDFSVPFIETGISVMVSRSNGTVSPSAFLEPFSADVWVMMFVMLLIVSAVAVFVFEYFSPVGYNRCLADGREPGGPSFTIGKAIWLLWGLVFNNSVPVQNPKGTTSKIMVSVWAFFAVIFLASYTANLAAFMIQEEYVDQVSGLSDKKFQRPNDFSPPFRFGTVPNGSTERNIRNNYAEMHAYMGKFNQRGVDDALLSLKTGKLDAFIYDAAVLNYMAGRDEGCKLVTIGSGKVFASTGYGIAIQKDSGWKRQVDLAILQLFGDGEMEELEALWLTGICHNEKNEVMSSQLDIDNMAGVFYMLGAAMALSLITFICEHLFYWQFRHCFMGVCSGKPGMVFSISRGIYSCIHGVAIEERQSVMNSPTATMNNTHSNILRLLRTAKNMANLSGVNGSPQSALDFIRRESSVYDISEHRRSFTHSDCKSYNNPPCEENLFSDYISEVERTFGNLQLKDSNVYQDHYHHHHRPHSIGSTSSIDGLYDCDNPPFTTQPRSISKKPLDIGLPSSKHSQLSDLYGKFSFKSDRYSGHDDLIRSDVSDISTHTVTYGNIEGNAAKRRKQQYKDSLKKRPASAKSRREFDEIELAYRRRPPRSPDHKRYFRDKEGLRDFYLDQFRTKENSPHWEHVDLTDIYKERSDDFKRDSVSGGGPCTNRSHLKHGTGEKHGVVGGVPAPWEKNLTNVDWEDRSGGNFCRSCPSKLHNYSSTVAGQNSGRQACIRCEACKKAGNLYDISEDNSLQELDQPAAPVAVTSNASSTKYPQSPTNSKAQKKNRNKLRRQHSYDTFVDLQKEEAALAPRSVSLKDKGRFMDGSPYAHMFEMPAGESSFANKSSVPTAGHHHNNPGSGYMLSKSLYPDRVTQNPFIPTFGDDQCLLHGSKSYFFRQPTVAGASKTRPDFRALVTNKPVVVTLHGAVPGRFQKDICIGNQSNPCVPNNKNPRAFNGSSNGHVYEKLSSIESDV

Glutamate NMDA receptor; Grin1/Grin2c, sequence (Q00961 whole entry, other chains not shown): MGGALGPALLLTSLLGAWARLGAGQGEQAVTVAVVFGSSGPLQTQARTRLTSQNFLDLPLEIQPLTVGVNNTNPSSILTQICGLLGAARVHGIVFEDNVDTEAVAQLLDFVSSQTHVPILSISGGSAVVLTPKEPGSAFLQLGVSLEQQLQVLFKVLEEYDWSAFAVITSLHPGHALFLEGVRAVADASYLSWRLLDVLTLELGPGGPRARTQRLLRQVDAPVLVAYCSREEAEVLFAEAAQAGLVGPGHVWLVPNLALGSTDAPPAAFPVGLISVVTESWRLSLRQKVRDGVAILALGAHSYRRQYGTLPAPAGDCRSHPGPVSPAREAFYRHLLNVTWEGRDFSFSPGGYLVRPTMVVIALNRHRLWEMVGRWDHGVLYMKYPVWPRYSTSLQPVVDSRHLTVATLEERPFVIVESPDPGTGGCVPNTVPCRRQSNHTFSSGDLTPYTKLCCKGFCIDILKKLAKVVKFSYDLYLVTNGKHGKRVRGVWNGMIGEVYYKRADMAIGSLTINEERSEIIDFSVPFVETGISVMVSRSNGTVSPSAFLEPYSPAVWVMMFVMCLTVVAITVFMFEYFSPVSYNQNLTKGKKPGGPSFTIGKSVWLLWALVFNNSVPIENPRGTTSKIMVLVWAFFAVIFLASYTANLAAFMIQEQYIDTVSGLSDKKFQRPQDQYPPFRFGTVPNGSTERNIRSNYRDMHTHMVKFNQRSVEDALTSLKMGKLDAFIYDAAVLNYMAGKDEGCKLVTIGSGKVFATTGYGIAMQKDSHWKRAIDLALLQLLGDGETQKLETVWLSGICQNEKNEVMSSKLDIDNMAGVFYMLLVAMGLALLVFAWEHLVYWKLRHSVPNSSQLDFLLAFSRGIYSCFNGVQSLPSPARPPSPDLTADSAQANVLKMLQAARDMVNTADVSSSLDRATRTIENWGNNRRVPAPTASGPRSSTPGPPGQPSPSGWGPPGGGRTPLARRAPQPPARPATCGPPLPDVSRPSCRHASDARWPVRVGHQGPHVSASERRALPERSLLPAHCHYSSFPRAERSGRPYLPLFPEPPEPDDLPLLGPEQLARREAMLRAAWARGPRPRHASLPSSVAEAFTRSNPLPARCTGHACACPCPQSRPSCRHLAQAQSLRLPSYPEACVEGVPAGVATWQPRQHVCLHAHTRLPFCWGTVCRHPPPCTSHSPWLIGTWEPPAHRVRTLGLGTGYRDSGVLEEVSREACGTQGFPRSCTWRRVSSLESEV

| Structure (SMILES) | IC50 [1] | IC50 [2] | IC50 [3] |
| --- | --- | --- | --- |
| Oc1ccc(CCCNCCCCc2ccccc2)cc1 | 48 µM | 18 µM | 0.015 µM |
| Oc1ccc(CCN2CCC(Cc3ccccc3)CC2)cc1 | > 100 µM | 57 µM | 0.2 µM |
| c1ccc(CCN2CCC(Cc3ccccc3)CC2)cc1 | > 100 µM | > 100 µM | 1.1 µM |
| CCN(CCCCc1ccccc1)CCc1ccc(O)cc1 | 88 µM | 27 µM | 0.3 µM |
| c1ccc(CCCNCCc2ccccc2)cc1 | > 100 µM | > 100 µM | 7.3 µM |
| Oc1ccc(CCNCCCCCc2ccccc2)cc1 | 39 µM | 12 µM | 0.008 µM |
| c1ccc(CCCCNCCc2ccccc2)cc1 | 36 µM | 46 µM | 3.5 µM |
| Oc1ccc(CCNCCCc2ccccc2)cc1 | > 100 µM | 26 µM | 0.096 µM |
| C[C@H](CCc1ccccc1)N[C@H](C)[C@@H](O)c1ccc(O)cc1 | 42 µM | – | 0.18 µM |
| Oc1ccc(CCCNCCCCCc2ccccc2)cc1 | 39 µM | 18 µM | 0.045 µM |
| Oc1ccc(CCOCCCCc2ccccc2)cc1 | > 100 µM | > 100 µM | 3.7 µM |
| Oc1ccc(CCNCCCCc2ccccc2)cc1 | 65 µM | 15 µM | 0.043 µM |
| Oc1ccc(CCNCCCCCCc2ccccc2)cc1 | 30 µM | 17 µM | 0.035 µM |
